Assay results: patent US10131652B2, “Pyrimidinyloxy benzene derivatives as herbicides” (E. I. DU PONT DE NEMOURS AND COMPANY, priority 2014, dated 2018)

Key:
Experiment in all cases: Test D pre-/postemergence plant response
Format in all cases: in vivo
[1] = system: velvetleaf (Abutilon theophrasti); settings: Postemergence
Text: (§1) Seeds of plant species selected from blackgrass (Alopecurus myosuroides), Italian ryegrass (Lolium multiflorum), winter wheat (Triticum aestivum), galium (catchweed bedstraw, Galium aparine), corn (Zea mays), large (Lg) crabgrass (Digitaria sanguinalis), giant foxtail (Setaria faberii), johnsongrass (Sorghum halepense), lambsquarters (Chenopodium album), morningglory (Ipomoea coccinea), yellow nutsedge (Cyperus esculentus), pigweed (Amaranthus retroflexus), ragweed (common ragweed, Ambrosia elatior), soybean (Glycine max), bamyardgrass (Echinochloa crus-galli), oilseed rape (Brassica napus), waterhemp (common waterhemp, Amaranthus rudis), and velvetleaf (Abutilon theophrasti) were planted into a blend of loam soil and sand and treated preemergence with test chemicals formulated in a non-phytotoxic solvent mixture which included a surfactant. At the same time, plants selected from these crop and weed species and also kochia (Kochia scoparia), wild oat (Avena fatua), and chickweed (common chickweed, Stellaria media) were planted in pots containing Redi-Earth® planting medium (Scotts Company, 14111 Scottslawn Road, Marysville, Ohio 43041) comprising spaghnum peat moss, vermiculite, wetting agent and starter nutrients and treated with postemergence applications of test chemicals formulated in the same manner. Plants ranged in height from 2 to 18 cm (1- to 4-leaf stage) for postemergence treatments. Treated plants and controls were maintained in a greenhouse for 13 to 15 days, after which time all species were compared to controls and visually evaluated. Plant response ratings, summarized in Table D, are based on a scale of 0 to 100 where 0 is no effect and 100 is complete control. A dash (-) response means no test result.

[2] = system: johnsongrass (Sorghum halepense); settings: Postemergence; for Plant response rating, Johnsongrass: scale 0 to 100, 0 no effect, 100 complete control
Text: as §1

[3] = system: blackgrass (Alopecurus myosuroides); settings: Postemergence; for Plant response rating, Blackgrass: scale 0 to 100, 0 no effect, 100 complete control
Text: as §1

[4] = system: yellow nutsedge (Cyperus esculentus); settings: Postemergence
Text: as §1

[5] = system: large (Lg) crabgrass (Digitaria sanguinalis); settings: Postemergence; for Plant response rating, Crabgrass, Large: scale 0 to 100, 0 no effect, 100 complete control
Text: as §1

[6] = system: pigweed (Amaranthus retroflexus); settings: Postemergence
Text: as §1

[7] = system: ragweed (common ragweed, Ambrosia elatior); settings: Postemergence
Text: as §1

[8] = system: morningglory (Ipomoea coccinea); settings: Postemergence
Text: as §1

[9] = system: galium (catchweed bedstraw, Galium aparine); settings: Postemergence; for Plant response rating, Galium: scale 0 to 100, 0 no effect, 100 complete control
Text: as §1

[10] = system: waterhemp (common waterhemp, Amaranthus rudis); settings: Postemergence
Text: as §1

[11] = system: winter wheat (Triticum aestivum); settings: Postemergence
Text: as §1

[12] = system: barnyardgrass (Echinochloa crus-galli); settings: Postemergence; for Plant response rating, Barnyardgrass: scale 0 to 100, 0 no effect, 100 complete control
Text: as §1

[13] = system: giant foxtail (Setaria faberii); settings: Postemergence; for Plant response rating, Foxtail, Giant: scale 0 to 100, 0 no effect, 100 complete control
Text: as §1

[14] = system: soybean (Glycine max); settings: Postemergence
Text: as §1

[15] = system: Italian ryegrass (Lolium multiflorum); settings: Postemergence
Text: as §1

[16] = system: corn (Zea mays); settings: Postemergence; for Plant response rating, Corn: scale 0 to 100, 0 no effect, 100 complete control
Text: as §1

[17] = system: oilseed rape (Brassica napus); settings: Postemergence
Text: as §1

[18] = system: lambsquarters (Chenopodium album); settings: Postemergence
Text: as §1

[19] = 31 g ai/ha, scale 0 to 100 (0 no effect, 100 complete control)
[20] = 62 g ai/ha, scale 0 to 100, 0 no effect, 100 complete control
[21] = 125 g ai/ha, scale 0 to 100, 0 no effect, 100 complete control

Structure (SMILES): FCc1cc(-c2c(Br)cccc2Oc2ncc(Cl)cn2)no1 [Compound 191]
- Plant response rating (scale 0 to 100), Velvetleaf ([1]; 16 g ai/ha): 15
- Velvetleaf plant response rating [1, 19]: 30
- Velvetleaf plant response rating [1, 20]: 30
- Plant response rating, Velvetleaf [1, 21]: 50
- Plant response rating (scale 0 to 100), Johnsongrass ([2]; 16 g ai/ha): 5
- Johnsongrass plant response rating [2, 19]: 5
- Plant response rating, Johnsongrass ([2]; 62 g ai/ha): 5
- Plant response rating, Johnsongrass ([2]; 125 g ai/ha): 5
- Plant response rating (scale 0 to 100), Blackgrass ([3]; 16 g ai/ha): 0
- Blackgrass plant response rating [3, 19]: 0
- Plant response rating, Blackgrass ([3]; 62 g ai/ha): 0
- Plant response rating, Blackgrass ([3]; 125 g ai/ha): 5
- Plant response rating (scale 0 to 100), Nutsedge, Yellow ([4]; 16 g ai/ha): 0
- Nutsedge, Yellow plant response rating [4, 19]: 5
- Nutsedge, Yellow plant response rating [4, 20]: 5
- Plant response rating, Nutsedge, Yellow [4, 21]: 10
- Plant response rating (scale 0 to 100), Crabgrass, Large ([5]; 16 g ai/ha): 5
- Crabgrass, Large plant response rating [5, 19]: 10
- Plant response rating, Crabgrass, Large ([5]; 62 g ai/ha): 10
- Plant response rating, Crabgrass, Large ([5]; 125 g ai/ha): 20
- Plant response rating (scale 0 to 100), Pigweed ([6]; 16 g ai/ha): 35
- Pigweed plant response rating [6, 19]: 30
- Pigweed plant response rating [6, 20]: 30
- Plant response rating, Pigweed [6, 21]: 60
- Plant response rating (scale 0 to 100), Ragweed ([7]; 16 g ai/ha): 30
- Ragweed plant response rating [7, 19]: 40
- Ragweed plant response rating [7, 20]: 60
- Plant response rating, Ragweed [7, 21]: 65
- Plant response rating (scale 0 to 100), Morningglory ([8]; 16 g ai/ha): 65
- Morningglory plant response rating [8, 19]: 65
- Morningglory plant response rating [8, 20]: 60
- Plant response rating, Morningglory [8, 21]: 85
- Plant response rating (scale 0 to 100), Galium ([9]; 16 g ai/ha): 40
- Galium plant response rating [9, 19]: 70
- Plant response rating, Galium ([9]; 62 g ai/ha): 85
- Plant response rating, Galium ([9]; 125 g ai/ha): 85
- Plant response rating (scale 0 to 100), Waterhemp ([10]; 16 g ai/ha): 25
- Waterhemp plant response rating [10, 19]: 60
- Waterhemp plant response rating [10, 20]: 70
- Plant response rating, Waterhemp [10, 21]: 65
- Plant response rating (scale 0 to 100), Wheat ([11]; 16 g ai/ha): 0
- Wheat plant response rating [11, 19]: 0
- Wheat plant response rating [11, 20]: 0
- Plant response rating, Wheat [11, 21]: 0
- Plant response rating (scale 0 to 100), Barnyardgrass ([12]; 16 g ai/ha): 5
- Barnyardgrass plant response rating [12, 19]: 5
- Plant response rating, Barnyardgrass ([12]; 62 g ai/ha): 5
- Plant response rating, Barnyardgrass ([12]; 125 g ai/ha): 10
- Plant response rating (scale 0 to 100), Foxtail, Giant ([13]; 16 g ai/ha): 5
- Foxtail, Giant plant response rating [13, 19]: 5
- Plant response rating, Foxtail, Giant ([13]; 62 g ai/ha): 5
- Plant response rating, Foxtail, Giant ([13]; 125 g ai/ha): 5
- Plant response rating (scale 0 to 100), Soybean ([14]; 16 g ai/ha): 45
- Soybean plant response rating [14, 19]: 65
- Soybean plant response rating [14, 20]: 75
- Plant response rating, Soybean [14, 21]: 95
- Plant response rating (scale 0 to 100), Ryegrass, Italian ([15]; 16 g ai/ha): 0
- Ryegrass, Italian plant response rating [15, 19]: 0
- Ryegrass, Italian plant response rating [15, 20]: 0
- Plant response rating, Ryegrass, Italian [15, 21]: 5
- Plant response rating (scale 0 to 100), Corn ([16]; 16 g ai/ha): 5
- Corn plant response rating [16, 19]: 5
- Plant response rating, Corn ([16]; 62 g ai/ha): 10
- Plant response rating, Corn ([16]; 125 g ai/ha): 10
- Plant response rating (scale 0 to 100), Oilseed Rape ([17]; 16 g ai/ha): 0
- Oilseed Rape plant response rating [17, 19]: 40
- Oilseed Rape plant response rating [17, 20]: 60
- Plant response rating, Oilseed Rape [17, 21]: 90
- Plant response rating (scale 0 to 100), Lambsquarters ([18]; 16 g ai/ha): 50
- Lambsquarters plant response rating [18, 19]: 70
- Lambsquarters plant response rating [18, 20]: 70
- Plant response rating, Lambsquarters [18, 21]: 85
